Test results from publication PMC10368641, “Expulsion mechanism of the substrate-translocating subunit in ECF transporters” (Nature Communications, 2023).

Experiments:
ECF-FolT2 [1] = molecular target: T1, ECF-FolT2 (Lactobacillus delbrueckii, UniProt Q1G929+Q1GBI9+Q1GBJ0); test: cryo-EM structure, […] Å; assay type: binding; conditions: lipid nanodiscs
T1 construct: gene ecfA1; full complex EcfA-EcfA'-EcfT-FolT2, ~115 kDa; N-terminal His10-TEV tag, C-terminal StrepII tag on FolT2; expressed in E. coli MC1061; MSP2N2 lipid nanodiscs; with Energy-coupling factor transporter transmembrane protein EcfT

ECF-FolT2 [2] = molecular target: T1, ECF-FolT2; test: cryo-EM structure, […] Å; assay type: binding; conditions: 5 mM Mg-AMP-PNP, 10 µM folate, 37 °C; both nucleotide sites; lipid nanodiscs
solitary ECF module = molecular target: T2, solitary ECF module (Lactobacillus delbrueckii, UniProt Q1GBI9+Q1GBJ0); test: cryo-EM structure, […] Å; assay type: binding; conditions: Mg-ATP in both nucleotide sites, closed ATPase dimer; lipid nanodiscs; catalytically inactive double mutant 2EQcryo
T2 construct: gene ecfA1; EcfA-EcfA'-EcfT without S-component, ~92 kDa; N-terminal His10-TEV tag removed; expressed in E. coli MC1061; MSP2N2 lipid nanodiscs; with Energy-coupling factor transporter transmembrane protein EcfT

[3] = molecular target: T3, solitary ECF module co-reconstituted with solitary FolT1 (Lactobacillus delbrueckii, UniProt Q1G930); test: radiolabelled folate uptake into proteoliposomes; assay type: biochemical; conditions: 100 nM folate, 5 mM lumenal Mg-ATP, 50 mM KPi pH 7.5, 30 °C; labelled compound
T3 construct: gene Ldb1624; FolT1 with N-terminal His8 tag from L. lactis NZ9000; ECF module from E. coli, tag removed by TEV; co-reconstituted into proteoliposomes; Energy-coupling factor transporter transmembrane protein EcfT

[4] = substrate: Nc1ncnc2c1ncn2[C@@H]1O[C@H](COP(=O)(O)OP(=O)(O)OP(=O)(O)O)[C@@H](O)[C@H]1O; test: enzyme-coupled (PK/LDH) spectrophotometric ATPase assay; assay type: biochemical, Lactobacillus delbrueckii; conditions: Mg-ATP 0-0.5 mM, 20 mM Tris pH 8.0, 150 mM NaCl, 37 °C, lipid nanodiscs

T1 sequence (Q1GBI8 entry or part of it, one chain of several, further chain): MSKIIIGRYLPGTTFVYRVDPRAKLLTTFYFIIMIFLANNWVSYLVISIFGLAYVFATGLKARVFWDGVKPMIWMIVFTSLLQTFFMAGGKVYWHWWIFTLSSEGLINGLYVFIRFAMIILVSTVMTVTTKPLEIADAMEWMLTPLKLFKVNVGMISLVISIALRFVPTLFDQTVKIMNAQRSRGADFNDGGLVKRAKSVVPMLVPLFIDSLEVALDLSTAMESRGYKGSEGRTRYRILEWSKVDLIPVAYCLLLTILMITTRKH
T1 sequence (Q1G929 entry or part of it, one chain of several): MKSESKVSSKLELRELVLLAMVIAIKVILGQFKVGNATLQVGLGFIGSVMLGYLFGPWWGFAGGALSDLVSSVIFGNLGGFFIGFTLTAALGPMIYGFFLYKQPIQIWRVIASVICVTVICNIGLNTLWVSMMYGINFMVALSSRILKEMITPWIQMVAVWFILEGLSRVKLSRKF
T3 sequence (Q1GBI8 entry or part of it, one chain of several): as the sequence (Q1GBI8 entry or part of it, one chain of several, further chain) above
T3 sequence (Q1GBJ0 whole entry, one chain of several, further chain): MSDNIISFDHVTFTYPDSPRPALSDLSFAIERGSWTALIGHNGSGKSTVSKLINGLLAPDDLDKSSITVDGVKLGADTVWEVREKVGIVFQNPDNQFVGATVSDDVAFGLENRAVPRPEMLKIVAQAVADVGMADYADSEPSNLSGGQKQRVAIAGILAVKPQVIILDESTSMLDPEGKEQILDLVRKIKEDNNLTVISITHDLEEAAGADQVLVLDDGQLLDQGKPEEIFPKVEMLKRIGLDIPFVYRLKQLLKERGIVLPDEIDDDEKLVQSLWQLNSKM
T3 sequence (Q1G930 entry or part of it, one chain of several): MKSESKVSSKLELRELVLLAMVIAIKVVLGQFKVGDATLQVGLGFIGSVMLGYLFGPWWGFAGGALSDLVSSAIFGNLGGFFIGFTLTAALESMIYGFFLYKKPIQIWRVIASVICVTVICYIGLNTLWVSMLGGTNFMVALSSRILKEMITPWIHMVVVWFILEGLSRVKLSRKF
T2 sequence (Q1GBI8 entry or part of it, one chain of several, further chain): as the sequence (Q1GBI8 entry or part of it, one chain of several, further chain) above

Molecule: Nc1ncnc2c1ncn2[C@@H]1O[C@H](COP(=O)(O)OP(=O)(O)O)[C@@H](O)[C@H]1O [ADP]
- cryo-EM structure, 3.2 Å (ECF-FolT2 [1]; 5 mM Mg-ATP added, site in EcfA'): ADP is bound exclusively by residues from the EcfA’ subunit

Molecule: Nc1ncnc2c1ncn2[C@@H]1O[C@H](COP(=O)(O)OP(=O)(O)NP(=O)(O)O)[C@@H](O)[C@H]1O [AMP-PNP]
- cryo-EM structure, 3.6 Å (ECF-FolT2 [2]): with AMP-PNP bound to both nucleotide-binding sites

Molecule: Nc1ncnc2c1ncn2[C@@H]1O[C@H](COP(=O)(O)OP(=O)(O)OP(=O)(O)O)[C@@H](O)[C@H]1O [ATP]
- cryo-EM structure, 3.2 Å (ECF-FolT2 [1]; 5 mM Mg-ATP, 10 µM folate, 37 °C, site in EcfA, adenine between EcfA Phe13 and FolT2 Arg174): ATP and ADP bound to the EcfA and EcfA’ subunits, respectively
- cryo-EM structure, 2.6 Å (solitary ECF module): In both ATPase subunits, Mg-ATP is now bound and engaged with the signature motif

Molecule: Nc1nc2ncc(CNc3ccc(C(=O)N[C@@H](CCC(=O)O)C(=O)O)cc3)nc2c(=O)[nH]1 [folate]
- radiolabelled folate uptake into proteoliposomes [3]: Uptake of folate into the proteoliposome lumen only occurred in the presence of lumenal Mg-ATP

B1: solitary ECF module (Lactobacillus delbrueckii subsp. bulgaricus ATCC 11842 = JCM 1002) (protein)
chain 1: SDNIISFDHVTFTYPDSPRPALSDLSFAIERGSWTALIGHNGSGKSTVSKLINGLLAPDDLDKSSITVDGVKLGADTVWEVREKVGIVFQNPDNQFVGATVSDDVAFGLENRAVPRPEMLKIVAQAVADVGMADYADSEPSNLSGGQKQRVAIAGILAVKPQVIILDESTSMLDPEGKEQILDLVRKIKEDNNLTVISITHDLEEAAGADQVLVLDDGQLLDQGKPEEIFPKVEMLKRIGLDIPFVYRLKQLLKERGIVLPDEIDDDEKLVQSLWQLNSKM
chain 2: MAIKFENVSYVYSPGSPLEAIGLDQLNFSLEEGKFIALVGHTGSGKSTLMQHFNALLKPTSGKIEIAGYTITPETGNKGLKDLRRKVSLAFQFSEAQLFENTVLKDVEYGPRNFGFSEDEAREAALKWLKKVGLKDDLIEHSPFDLSGGQMRRVALAGVLAYEPEIICLDEPAAGLDPMGRLEMMQLFKDYQAAGHTVILVTHNMDDVADYADDVLALEHGRLIKHASPKEVFKDSEWLQKHHLAEPRSARFAAKLEAAGLKLPGQPLTMPELADAIKQSLKGGEHE
notes: EcfA-EcfA'-EcfT without S-component, ~92 kDa; N-terminal His10-TEV tag removed; expressed in E. coli MC1061; MSP2N2 lipid nanodiscs; with Energy-coupling factor transporter transmembrane protein EcfT
- Km [4]: 136.2 µM
